Values of other authors in US20080306069A1, “Pyrazole Derivatives for the Inhibition of CDK'S and GSK'S” (ASTEX THERAPEUTICS LIMITED, priority 2005, published 2008).

Test system: malignant cells from B-cell chronic lymphocytic leukemia (B-CLL)
Details: in vitro

SMILES	apoptosis of malignant B-CLL cells
CC[C@H](CO)Nc1nc(NCc2ccccc2)c2ncn(C(C)C)c2n1 [CYC 202]	induce in vitro apoptosis
CN1CC[C@H](c2c(O)cc(O)c3c(=O)cc(-c4ccccc4Cl)oc23)[C@H](O)C1 [Flavopiridol, flavopiridol]	induce in vitro apoptosis
